Columns and labels:
HCV replicon cells [1] = assay: Luciferase activity in HCV replicon cells; type: cell-based; conditions: Hepatitis C virus, 72 h, read-out: inhibition of luciferase activity of HCV
Protocol: Additionally, a series of compounds (WJCPA-1 to WJCPA-135) having the bis-amide structure as a parent structure in common, based on the inhibitory effect of WJCPA-126 against the PPIase activity, were synthesized and their activities were confirmed. Specifically, Huh7-rep cells were treated with each of the compounds at a concentration of 2 μM for 3 days, and the expression level of NS5A was confirmed by performing an immunoblot analysis according to a known method (FIG. 5). The 32 kinds of compounds confirmed to have excellent inhibitory effect especially against the NS5A expression from the immunoblot experiment were measured regarding their inhibitory effect against luciferase activity and the results are illustrated in FIG. 6. In the same manner as in western blot, the HCV replicon cells were treated with each of the compounds at a concentration of 2 μM and incubated for 72 hours, and the total cell lysate of the cultured cells were used for the analyses of western blot and the activity of luciferase.

HCV replicon cells [2] = assay: Western blot of NS5A and NS5B in HCV replicon cells (total lysate, membrane fraction); type: cell-based, hepatitis C virus
Protocol: Example 10: Preparation of a Membrane Fraction
Cells grown to about 80% confluence in a culture dish with a diameter of 10 cm were scraped using PBS. The cells were pelleted by centrifugation at 220 g for 10 minutes. The pellet was resuspended in 1 mL hypotonic buffer (10 mM Tris-HCL pH 7.5, 10 mM KCL, 1.5 mM MgCl2, 0.5 mM PMSF (phenylmethylsulfonyl fluoride), and 2 μg/mL leupeptin), and incubated at 4° C. for 10 minutes. The suspension was homogenized using 75 strokes of a glass dounce homogenizer using a tight-fitting pestle (Sigma, St. Louis, Mo., USA). Nuclei and undestroyed cells were removed by centrifugation at 220 g for 10 minutes at 4° C. The cell membrane in the thus-obtained supernatant was directly centrifuged at 68,000 g for 1 hour at 4° C. using an ultracentrifuge tube in a micro-ultracentrifuge (Hitachi, Japan). Upon centrifugation, the coarse replication complex fraction was recovered from the pellet and used for western blot analysis.
Example 14: Western Blot Analysis
Cell extracts were separated by SDS-PAGE and then transferred to a nitrocellulose membrane. After blocking, the membrane was incubated with indicated primary antibody and subsequently incubated with secondary antibody. The samples were detected with enhanced chemiluminescence reagents (Santa Cruz, Calif., USA).

in vitro = type: cell-based, hepatitis C virus; conditions: genotype 2a JFH1; FIG. 11b
[3] = test system: genotype 2a (JFH1) replication cells; assay: microbe, parasite or virus in culture; type: cell-based, hepatitis C virus; conditions: Hepatitis C virus
[4] = test system: STAT1, STAT2, IRF9, OAS1, and ISG15; assay: Real-time qRT-PCR of interferon-stimulated genes in HCV replicon cell; type: cell-based, human; conditions: 2 μM; FIG. 14
Protocol: (§1) Example 19: Real-Time Quantitative Reverse Transcriptase PCR Analysis
(§2) Real-time quantitative reverse transcriptase PCR (qRT-PCR) was performed using SYBR Green PCR Master Mix (Invitrogen/Applied Biosystem, Carlsbad, Calif., USA) and ABI Prism 7300 Real-time PCR System (Applied Biosystems, Carlsbad, Calif., USA) according to the manufacturer's instructions. Calculations were performed based on […] method using the following equation: R (ratio)=2-[ΔCT (sample)-ΔCT (control group)]. The data were expressed as fold change of the treated group relative to the control group and standardized relative to the glyceraldehyde 3-phosphate dehydrogenase (GAPDH) level.

IL-8 = IL-8 mRNA and IL-8 ELISA in HCV replicon cell; type: cell-based, human; conditions: 2 μM
Protocol: (§3) Example 11: Determination of IL-8 and INF-α Concentrations in Cell Culture Media by ELISA
(§4) Upon incubation, the cell culture media were collected and the IL-8 and IFN-α concentrations were analyzed according to the protocol of eBioscience (San Diego, Calif., USA) by ELISA.
as §1, §2

IFN-α = IFN-α mRNA and IFN-α ELISA in HCV replicon cell; type: cell-based, human
Protocol: as §3, §4, §1, §2

HCV replicon cell = assay: Combined treatment: MTT analysis in HCV replicon cell; type: cell-based, human
Protocol: Example 9: Analysis of Cytotoxicity
Cytotoxicity was analyzed in a 96-well plate using 5 mg/mL of MTT (3-(4,5-dimethylthiasol-2-yl)-2,5-diphenyltetrazolium bromide). The optical density of cells was measured at 550 nm using a microplate reader (Bio-Rad, Richmond, Calif., USA). Cell viability rate was expressed in percentage of the absorbance of treated cells relative to the absorbance of untreated cells.

In the case of `COc1cc(C(C(=O)NC2CCCCC2)N(C(=O)Cc2c[nH]c3ccccc23)c2ccc(C(C)C)cc2)cc(OC)c1OC` (stereo not drawn) [WJCPA-126, N-cyclohexyl-2-[(2-1H-indol-3-yl-acetyl)-(4-isopropyl-phenyl)-amino]-2-(3,4,5-trimethoxy-phenyl)-acetamide], the inhibition at 2 µM (HCV replicon cells [1]) is reported as no more than 80%, the “levels of NS5A and NS5B proteins” value (HCV replicon cells [2]; 0.5 μM to 4 μM, FIG. 10a) is reported as “decrease in the levels of NS5A and NS5B proteins in a dose-dependent manner” and the “NS5A and NS5B protein levels in total lysate and membrane fraction” value (HCV replicon cells [2]; 2 μM, HCV Con1b replicon cells, FIG. 10b) is reported as “decrease the protein levels of NS5A and NS5B in both the total lysate and the membrane fraction”. For the same molecule, the CC50 (in vitro) was 22.3 ± 4.23 µM, the EC50 [3] was 1.1 ± 0.05 µM and the “mRNA expression levels of STAT1, STAT2, IRF9, OAS1, and ISG15” value [4] was “increase the mRNA expression levels of STAT1, STAT2, IRF9, OAS1, and ISG15 in a time-dependent manner”. For the same molecule, the “mRNA level of IL-8” value (IL-8; FIG. 15b) was “significant reduction of mRNA level of IL-8 in a time-dependent manner”, the “IL-8 production (ELISA)” value (IL-8; FIG. 15c) was “significantly reduces the expression of IL-8 production” and the “mRNA level of IFN-α” value (IFN-α; 48 hours after the treatment, FIG. 15d) was “cannot control the mRNA level of IFN-α”. For the same molecule, the “IFN-α production (ELISA)” value (IFN-α; FIG. 15e) was “significantly increase the IFN-α production”, the “cytotoxicity in combined treatment” value (HCV replicon cell; in combination with IFN-α, RBV, or telaprevir, FIG. 16a) was “did not show any noticeable cytotoxicity” and the “cell viability in combined treatment” value (HCV replicon cell; in combination with interferon-α, ribavirin, or telaprevir) was no less than 80%.

Source: patent US10064843B2, “Bis-amide derivative and use thereof” (University-Industry Cooperation Group of Kyung Hee …, priority 2013, dated 2018)
